Test results taken from PubChem BioAssay AID1500 (NMMLSC, 2009).
Active and inactive are the calls of the source.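 How the source made its calls: active means compounds cutting labeled signal peptide binding to staph cells by half or more; inactive means the rest.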

Test system: S. aureus cells, FITC-AIP binding, flow cytometry
Assay: displacement of labeled AIP from bacterial receptors – strains RN6390, NM300, flow cytometry, mechanism study for S. aureus quorum sensing inhibitors, late-stage follow-up (AID 1500)
Details: stronger effect = higher value

SMILES: CCc1oc2ccccc2c1C(=O)c1cc(Br)c(O)c(Br)c1
- inhibition (at 6 µM): 65%
- inhibition (strain RN6390, at 6 µM): 69%

SMILES: CC1CCCN(C(C(=O)Nc2ccc3c(c2)OCCO3)c2ccccc2)C1 (stereo unspecified)
- inhibition (at 12 µM): 26% (inactive)

SMILES: CC1CCCN(C(C(=O)Nc2ccc3c(c2)OCO3)c2ccccc2)C1 (stereo unspecified)
- inhibition (at 12 µM): 20% (inactive)

SMILES: Cc1c(Cl)cccc1Nc1ccccc1C(=O)O
- inhibition (at 30 µM): 67%
- inhibition (strain RN6390, at 30 µM): 60%
